Test results as given in US5142051A, “N-phosphonylmethoxyalkyl derivatives of pyrimidine and purine bases and a therapeutical composition therefrom with antiviral activity” (Ceskoslovenska Akademie Ved, priority 1986, dated 1992).
≈ marks a conversion by molar mass, not a printed value. Read-outs that look alike come from different tables or passages of the source.

Assays:
[1] = system: HSV-1 TK^- (Field); assay: Inhibition of virus-induced cytopathic effect in PRK-cells, HSV-1 TK^- (Field); format: cell-based; conditions: Human alphaherpesvirus 1, PRK, read-out: MIC50
[2] = system: HSV-1 (KOS); assay: Inhibition of virus-induced cytopathic effect in PRK-cells, HSV-1 (KOS); format: cell-based; conditions: read-out: MIC50
[3] = system: HSV-1 (F); assay: Inhibition of virus-induced cytopathic effect in PRK-cells, HSV-1 (F); format: cell-based; conditions: read-out: MIC50
[4] = system: HSV-2 (G); assay: Inhibition of virus-induced cytopathic effect in PRK-cells, HSV-2 (G); format: cell-based; conditions: read-out: MIC50
[5] = system: HSV-1 (McIntyre); assay: Inhibition of virus-induced cytopathic effect in PRK-cells, HSV-1 (McIntyre); format: cell-based; conditions: read-out: MIC50
[6] = system: vaccinia virus (VV); assay: microbe, parasite or virus in culture; format: cell-based; conditions: Orthopoxvirus vaccinia, PRK, read-out: MIC50
[7] = system: HSV-2 (196); assay: Inhibition of virus-induced cytopathic effect in PRK-cells, HSV-2 (196); format: cell-based; conditions: read-out: MIC50
[8] = Cytotoxicity: observable morphological changes in uninfected tissue culture cells; conditions: rabbit, prk cells
[9] = system: HSV-2 (Lyons); assay: Inhibition of virus-induced cytopathic effect in PRK-cells, HSV-2 (Lyons); format: cell-based; conditions: read-out: MIC50
[10] = system: HSV-1 TK^- (Cheng); assay: Inhibition of virus-induced cytopathic effect in PRK-cells, HSV-1 TK^- (Cheng); format: cell-based; conditions: Human alphaherpesvirus 1, PRK, read-out: MIC50
[11] = system: strains or mutants devoid of thymidine kinase; conditions: in words; cited from earlier work
[12] = system: TK^- mutants of herpes viruses type 1 and 2; assay: Antiviral effect against TK^- mutants of herpes viruses; format: cell-based; conditions: in words
[13] = system: DNA viruses; conditions: background statement, in words; cited from earlier work
[14] = system: vaccinia virus; format: cell-based; conditions: in words
[15] = in words; cited from earlier work
[16] = Human alphaherpesvirus 1, HSV-1 (KOS), PRK-cells, 50% inhibition of cytopathic effect
[17] = Human alphaherpesvirus 1, HSV-1 (F), PRK-cells, 50% inhibition of cytopathic effect
[18] = Human alphaherpesvirus 2, HSV-2 (G), PRK-cells, 50% inhibition of cytopathic effect
[19] = Human alphaherpesvirus 1, HSV-1 (McIntyre), PRK-cells, 50% inhibition of cytopathic effect
[20] = Human alphaherpesvirus 2, HSV-2 (196), PRK-cells, 50% inhibition of cytopathic effect
[21] = Human alphaherpesvirus 2, HSV-2 (Lyons), PRK-cells, 50% inhibition of cytopathic effect

Row | SMILES | EC50 [1] | EC50 [2, 16] | EC50 [3, 17] | EC50 [4, 18] | EC50 [5, 19] | EC50 [6] | EC50 [7, 20] | MCC [8] | EC50 [9, 21] | further results
1 | NNc1ncnc2c1ncn2CC(CO)OCP(=O)(O)O (racemic) [6-Hydrazinopurin-9-yl, (RS)--CH2 OH] | 40 µg/mL (≈ 126 µM) | 150 µg/mL (≈ 471 µM) | 70 µg/mL (≈ 220 µM) | 70 µg/mL (≈ 220 µM) | 70 µg/mL (≈ 220 µM) | 20 µg/mL (≈ 62.8 µM) | 70 µg/mL (≈ 220 µM) | 400 µg/mL | 70 µg/mL (≈ 220 µM) | 
2 | O=P(O)(O)COC(CO)Cn1cnc2c(NO)ncnc21 (racemic) [6-Hydroxylaminopurin-9-yl, (RS)--CH2 OH] |  | 20 µg/mL (≈ 62.7 µM) | 20 µg/mL (≈ 62.7 µM) | 20 µg/mL (≈ 62.7 µM) | 7 µg/mL (≈ 21.9 µM) | 7 µg/mL (≈ 21.9 µM) | 20 µg/mL (≈ 62.7 µM) | 400 µg/mL | 20 µg/mL (≈ 62.7 µM) | 
3 | Nc1nc2c(ncn2CC(CO)OCP(=O)(O)O)c(=O)[nH]1 (racemic) [Guanin-9-yl, (RS)--CH2 OH] | 10 µg/mL (≈ 31.3 µM) | 20 µg/mL (≈ 62.7 µM) | 7 µg/mL (≈ 21.9 µM) | 20 µg/mL (≈ 62.7 µM) | 2 µg/mL (≈ 6.27 µM) | 2 µg/mL (≈ 6.27 µM) | 20 µg/mL (≈ 62.7 µM) | 400 µg/mL | 20 µg/mL (≈ 62.7 µM) | 
4 | Nc1nc(N)c2ncn(C[C@@H](CO)OCP(=O)(O)O)c2n1 [2-Aminoadenin-9-yl, (S)--CH2 OH] |  | 20 µg/mL (≈ 62.8 µM) | 7 µg/mL (≈ 22 µM) | 4 µg/mL (≈ 12.6 µM) | 2 µg/mL (≈ 6.28 µM) | 0.7 µg/mL (≈ 2.2 µM) | 7 µg/mL (≈ 22 µM) | 200 µg/mL | 7 µg/mL (≈ 22 µM) | 
5 | Nc1nc(N)c2ncn(CCOCP(=O)(O)O)c2n1 [2-Aminoadenin-9-yl, H] |  | 7 µg/mL (≈ 24.3 µM) | 2 µg/mL (≈ 6.94 µM) | 2 µg/mL (≈ 6.94 µM) | 2 µg/mL (≈ 6.94 µM) | 70 µg/mL (≈ 243 µM) | 2 µg/mL (≈ 6.94 µM) | 200 µg/mL | 2 µg/mL (≈ 6.94 µM) | 
6 | Nc1ncc2ncn(CCOCP(=O)(O)O)c2n1 [2-Aminopurin-9-yl, H] | 150 µg/mL (≈ 549 µM) | 70 µg/mL (≈ 256 µM) | 70 µg/mL (≈ 256 µM) | 20 µg/mL (≈ 73.2 µM) | 70 µg/mL (≈ 256 µM) | 200 µg/mL (≈ 732 µM) | 20 µg/mL (≈ 73.2 µM) | 200 µg/mL | 7 µg/mL (≈ 25.6 µM) | EC50 [10]: 150 µg/mL (≈ 549 µM)
7 | Nc1nccc2c1ncn2C[C@@H](CO)OCP(=O)(O)O [3-Deazaadenin-9-yl, (S)--CH2 OH] |  | 0.2 µg/mL (≈ 0.662 µM) | 0.2 µg/mL (≈ 0.662 µM) | 0.1 µg/mL (≈ 0.331 µM) | 0.7 µg/mL (≈ 2.32 µM) |  | 0.7 µg/mL (≈ 2.32 µM) | 40 µg/mL | 0.2 µg/mL (≈ 0.662 µM) | 
8 | O=c1[nH]c(=O)n([C@H]2C[C@H](O)[C@@H](CO)O2)cc1C=CBr [5-(2-Bromovinyl)-2'-deoxyuridine, 5-(2-bromovinyl)-2' -deoxyuridine, reference compound] |  |  |  |  |  | 7 µg/mL (≈ 21 µM) |  | 400 µg/mL |  | sensitivity of strains or mutants devoid of thymidine kinase [11]: usually also resistant; EC50 ([2]; Human alphaherpesvirus 1, PRK): 0.02 µg/mL (≈ 0.06 µM); EC50 ([3]; Human alphaherpesvirus 1, PRK): 0.02 µg/mL (≈ 0.06 µM); EC50 ([4]; Human alphaherpesvirus 2, PRK): 4 µg/mL (≈ 12 µM); EC50 ([5]; Human alphaherpesvirus 1, PRK): 0.02 µg/mL (≈ 0.06 µM); EC50 ([7]; Human alphaherpesvirus 2, PRK): 1 µg/mL (≈ 3 µM); EC50 ([9]; Human alphaherpesvirus 2, PRK): 10 µg/mL (≈ 30 µM)
9 | Nc1ncnc2c1ncn2C[C@@H](CO)OCP(=O)(O)O [Adenin-9-yl, (S)--CH2 OH, 9-(S)-(2-phosphonylmethoxy-3-hydroxypropyl)adenine, reference compound] |  | 20 µg/mL (≈ 66 µM) | 7 µg/mL (≈ 23.1 µM) | 20 µg/mL (≈ 66 µM) | 1 µg/mL (≈ 3.3 µM) | 7 µg/mL (≈ 23.1 µM) | 7 µg/mL (≈ 23.1 µM) | 100 µg/mL | 20 µg/mL (≈ 66 µM) | effect where Zovirax, DHPG fail [11]: effective even in those cases where the above-mentioned drugs fail; effect against TK^- mutants of herpes viruses type 1 and 2 [12]: highly effective; antiviral activity [13]: very potent antivirals, acting specifically against DNA viruses; effect against vaccinia virus [14]: highly effective
10 | Nc1ccn(C[C@@H](CO)OCP(=O)(O)O)c(=O)n1 [Cytosin-1-yl, (S)--CH2 OH] | 7 µg/mL (≈ 25.1 µM) |  |  |  |  | 0.2 µg/mL (≈ 0.716 µM) |  | 100 µg/mL |  | EC50 ([2]; Human alphaherpesvirus 1, PRK): 7 µg/mL (≈ 25.1 µM); EC50 ([3]; Human alphaherpesvirus 1, PRK): 2 µg/mL (≈ 7.16 µM); EC50 ([4]; Human alphaherpesvirus 2, PRK): 20 µg/mL (≈ 71.6 µM); EC50 ([5]; Human alphaherpesvirus 1, PRK): 1 µg/mL (≈ 3.58 µM); EC50 [10]: 10 µg/mL (≈ 35.8 µM); EC50 ([7]; Human alphaherpesvirus 2, PRK): 2 µg/mL (≈ 7.16 µM); EC50 ([9]; Human alphaherpesvirus 2, PRK): 20 µg/mL (≈ 71.6 µM)
11 | Nc1nc2c(ncn2COC(CO)CO)c(=O)[nH]1 [DHPG, 9-(1,3-dihydroxy-2-propoxymethyl)guanine] |  |  |  |  |  |  |  |  |  | sensitivity of strains or mutants devoid of thymidine kinase [11]: not sensitive; water-solubility [15]: low water-solubility
12 | Nc1nc2c(ncn2CCOCP(=O)(O)O)c(=O)[nH]1 [Guanin-9-yl, H] |  | 7 µg/mL (≈ 24.2 µM) | 2 µg/mL (≈ 6.92 µM) | 4 µg/mL (≈ 13.8 µM) | 2 µg/mL (≈ 6.92 µM) | 7 µg/mL (≈ 24.2 µM) | 2 µg/mL (≈ 6.92 µM) | 40 µg/mL | 7 µg/mL (≈ 24.2 µM) | 
13 | Nc1ncnc2c1ncn2CCOCP(=O)(O)O [PMEA, 9-(2-phosphonylmethoxyethyl)adenine] |  |  |  |  |  |  |  |  |  | effect where Zovirax, DHPG fail [11]: effective even in those cases where the above-mentioned drugs fail; effect against TK^- mutants of herpes viruses type 1 and 2 [12]: highly effective; antiviral activity [13]: very potent antivirals, acting specifically against DNA viruses; effect against vaccinia virus [14]: highly effective
14 | Cc1cn(C[C@@H](CO)OCP(=O)(O)O)c(=O)[nH]c1=O [Thymin-1-yl, (S)--CH2 OH] | 200 µg/mL (≈ 680 µM) | 70 µg/mL (≈ 238 µM) | 150 µg/mL (≈ 510 µM) | 20 µg/mL (≈ 68 µM) | 70 µg/mL (≈ 238 µM) | 300 µg/mL (≈ 1020 µM) | 150 µg/mL (≈ 510 µM) | 400 µg/mL | 70 µg/mL (≈ 238 µM) | EC50 [10]: 400 µg/mL (≈ 1360 µM)
15 | Nc1nc2c(ncn2COCCO)c(=O)[nH]1 [Zovirax] |  |  |  |  |  |  |  |  |  | sensitivity of strains or mutants devoid of thymidine kinase [11]: not sensitive
